According to article PMC11901902, “Design, Synthesis, and Cytotoxicity Evaluation of Novel Indolin-2-One Based Molecules on Hepatocellular Carcinoma HepG2 Cells as Protein Kinase Inhibitors” (Molecules, 2025):
Where two headings read alike, the source gives them in different places.

What was measured:
[1] = tested on: HepG-2 cells; test: MTT cytotoxicity assay on HepG-2 cells; format: cell-based, human; settings: Homo sapiens, HepG2; for viability at 1.25 µM: HepG-2, 1.25 µM; for viability at 1.25 µM / viability at 2.5 µM / viability at 5 µM / viability at 10 µM / viability at 20 µM / viability at 40 µM / viability at 80 µM / viability at 160 µM: Table S1; for viability at 2.5 µM: HepG-2, 2.5 µM; for viability at 5 µM: HepG-2, 5 µM; for viability at 10 µM: HepG-2, 10 µM; for viability at 20 µM: HepG-2, 20 µM; for viability at 40 µM: HepG-2, 40 µM; for viability at 80 µM: HepG-2, 80 µM; for viability at 160 µM: HepG-2, 160 µM; for IC50: MTT, 24 h treatment, mean of three experiments ± SEM
Procedure: (§1) Cytotoxic activity of the synthesized compounds was evaluated against HepG-2 and MCF-7 cancer cell lines using the MTT assay. The tested cell lines were obtained from the American Type Culture Collection (ATCC, […], USA) through the Tissue Culture Unit, The Egyptian Organization for Biological Products and Vaccines (Vacsera, Giza, Egypt). Indirubin, chemicals, and solvents were purchased from Sigma-Aldrich (St. Louis, MO, USA). The cells were grown on RPMI-1640 medium supplemented with 10% inactivated fetal calf serum and 50 µg/mL gentamycin. The cells were maintained at 37 °C in a humidified atmosphere with 5% CO2 and were sub-cultured two to three times per week. For antitumor assays, the tumor cell lines were suspended in the medium at concentration 5 × 10^4 cell/well in Corning® 96-well tissue culture plates (Corning, Corning, NY, USA), then incubated for 24 h. The tested molecules were then added to 96-well plates (six replicates) to achieve six concentrations for each compound. Six vehicle controls with media or 0.5% DMSO were run for each 96-well plate as a control. After incubating for 24 h, the numbers of viable cells were determined by the MTT test. Briefly, the media was removed from the 96 well plate and replaced with 100 µL of fresh culture RPMI 1640 medium without phenol red then 10 µL of the 12 mM MTT stock solution (5 mg of MTT in 1 mL of PBS) to each well including the untreated controls. The 96-well plates were then incubated at 37 °C and 5% CO2 for 4 h. An 85 µL aliquot of the media was removed from the wells, and 50 µL of DMSO was added to each well, mixed thoroughly with the pipette, and incubated at 37 °C for 10 min. Then, the optical density was measured at 590 nm with the microplate reader (SunRise, TECAN, Inc., Morrisville, NC, USA) to determine the number of viable cells, and the percentage of viability was calculated as […], where ODt is the mean optical density of wells treated with the tested sample and ODc is the mean optical density of untreated cells. The relation between surviving cells and drug concentration was plotted to obtain the survival curve of each tumor cell line after treatment with the specified compound. […] Each concentration was repeated four times.

[2] = tested on: MCF-7 cells; test: MTT cytotoxicity assay on MCF-7 cells; format: cell-based; settings: Homo sapiens, MCF7; for viability at 1.25 µM: MCF-7, 1.25 µM; for viability at 2.5 µM: MCF-7, 2.5 µM; for viability at 5 µM: MCF-7, 5 µM; for viability at 10 µM: MCF-7, 10 µM; for viability at 20 µM: MCF-7, 20 µM; for viability at 40 µM: MCF-7, 40 µM; for viability at 80 µM: MCF-7, 80 µM; for viability at 160 µM: MCF-7, 160 µM
Procedure: as §1

[3] = MTT, 24 h treatment, mean of three experiments ± SEM, read-out: IC50 (µM) MCF-7
[4] = Table S2, read-out: IC50 (µM) on MCF-7 cell line

SMILES | viability at 1.25 µM [1] | viability at 2.5 µM [1] | viability at 5 µM [1] | viability at 10 µM [1] | viability at 20 µM [1] | viability at 40 µM [1] | viability at 80 µM [1] | viability at 160 µM [1] | IC50 [1] | viability at 1.25 µM ([2]; Table S2) | viability at 2.5 µM ([2]; Table S2) | viability at 5 µM ([2]; Table S2) | viability at 10 µM ([2]; Table S2) | viability at 20 µM ([2]; Table S2) | viability at 40 µM ([2]; Table S2) | viability at 80 µM ([2]; Table S2) | viability at 160 µM ([2]; Table S2) | IC50 [2, 3] | IC50 [2, 4]
COc1ccc2c(c1)C(=Nc1ccc3nc[nH]c(=O)c3c1)C(=O)N2 [Compound 13, 6-(5-Methoxy-2-oxo-1,2-dihydro-indol-3-ylideneamino)-3H-quinazolin-4-one] | 88.2 ± 7.4% | 86.5% | 75.9 ± 4.6% | 61.5 ± 3.2% | 40.9 ± 2.7% | 26.6 ± 1.5% | 7.9 ± 0.9% | 3.9 ± 0.3% | 18.9 ± 1.05 µM | 109 ± 7.3% | 108 ± 7.4% | 99.6 ± 6.5% | 87.6 ± 4.6% | 71.9 ± 3.2% | 67.6 ± 2.7% | 60.8 ± 1.5% | 56.8 ± 0.9% | > 100 µM | 123 ± 13.2 µM
O=C1Nc2ccccc2C1=Nc1ccc(-c2nc3ccccc3c(=O)[nH]2)cc1 [Compound 18, 2-[4-(2-Oxo-1,2-dihydro-indol-3-ylideneamino)-phenyl]-3H-quinazolin-4-one] | 78 ± 7.2% | 75.6 ± 6.8% | 73.5 ± 5.8% | 55.9 ± 4.1% | 40.4 ± 2.9% | 24.9 ± 2.8% | 4.54 ± 0.23% | 1.95 ± 0.19% | 82.4 ± 7.17 µM | 109 ± 6.2% | 92 ± 6.8% | 94.2 ± 5.8% | 80.8 ± 4.9% | 84.8 ± 2.9% | 83.8 ± 2.8% | 74.3 ± 1.2% | 67.9 ± 0.8% | > 100 µM | 143 ± 16.2 µM
O=C1Nc2ccc(F)cc2/C1=N/c1ccc(-c2nc3ccccc3c(=O)[nH]2)cc1 [Compound 19, 2-[4-(5-Flouro-2-oxo-1,2-dihydro-indol-3-ylideneamino)-phenyl]-3H-quinazolin-4-one] | 68.4 ± 6.6% | 75 ± 5.3% | 72.3 ± 5.9% | 58.4 ± 3.5% | 46.3 ± 2.4% | 26.6 ± 1.7% | 13.6 ± 0.8% | 7.47 ± 0.2% | 28.4 ± 1.26 µM | 109 ± 6.6% | 99.3 ± 5.3% | 93.9 ± 4.9% | 81.2 ± 3.9% | 59 ± 2.4% | 36.4 ± 1.7% | 16.4 ± 1.8% | 12 ± 1.2% | 40.8 ± 3.24 µM | –
O=C1Nc2ccc(Br)cc2C1=Nc1ccc(-c2nc3ccccc3c(=O)[nH]2)cc1 [Compound 21, 2-[4-(5-Bromo-2-oxo-1,2-dihydro-indol-3-ylideneamino)-phenyl]-3H-quinazolin-4-one] | 98.3 ± 7.7% | 82.5 ± 6.8% | 77.8 ± 5.5% | 61.4 ± 4.6% | 47 ± 3.4% | 23 ± 1.5% | 9.33 ± 1.1% | 6.14 ± 0.9% | 23.7 ± 0.74 µM | 103 ± 7.7% | 99.6 ± 6.8% | 91.6 ± 5.5% | 78.2 ± 4.6% | 66.3 ± 3.4% | 33.2 ± 2.5% | 16 ± 1.1% | 10.3 ± 0.9% | 33.6 ± 2.33 µM | –
